From patent US20030018061A1, “Novel remedies with the use of beta 3 agonist” (priority 2000, published 2003) come the findings set out here.

The subject of assay [1] is Mice fasted overnight, glucose loaded. In words: Antidiabetic effect (II): plasma glucose after glucose loading in fasted mice, glibenclamide and β3 agonist. In kind it is in vivo. To be noted: 1 hour after glucose load (1 g/kg s.c.), oral GLI 10 mg/kg, compound a 10 mg/kg, d 0.3 mg/kg, e, g 3 mg/kg, i 1 mg/kg, vs glucose loading only. As to the method: Mice fasted overnight were orally administered with glibenclamide (GLI: 10 mg/kg), a β3 agonist (compound a: 10 mg/kg; compound c: 0.3 mg/kg; compound d: 0.3 mg/kg; compound e: 3 mg/kg; compound g: 3 mg/kg; compound h: 1 mg/kg; compound i: 1 mg/kg), or GLI and a β3 agonist (compound a, compound c, compound d, compound e, compound g, compound h, and compound i) in combination (each dosage was the same as the aforementioned), and immediately glucose (1 g/kg, subcutaneous injection) was loaded. Blood was collected after 1 hour, and the amount of glucose contained in blood plasma was measured.
In this combined use, hypoglycemia, which is a side effect of glibenclamide, was not observed.

The subject of assay [2] is Mice induced with obesity by feeding with a high fat diet. In words: Antiobestic effect (I): body weight of high fat diet obese mice, sibutramine and β3 agonist. The class given is in vivo. To be noted: oral, 2 weeks; SIB 1 mg/kg; compound c, d 0.3 mg/kg; e, g 3 mg/kg; h, i 1 mg/kg; alone or combined at same doses. Here is the method: Mice induced with obesity by feeding with a high fat diet for 2 months were orally administered with sibutramine (SIB: 1 mg/kg), a β3 agonist (compound c: 0.3 mg/kg; compound d: 0.3 mg/kg; compound e: 3 mg/kg; compound g: 3 mg/kg; compound h: 1 mg/kg; compound i: 1 mg/kg), or SIB and a β3 agonist (compound c, compound d, compound e, compound g, compound h, and compound i) in combination (each dosage was the same as the aforementioned) for 2 weeks and bred, and body weight was measured.

Assay [3] relates to human urinary bladder compression muscle. In words: Relaxation of carbachol-contracted human urinary bladder compression muscle. In kind it is cell-based. To be noted: for relaxation of bladder compression muscle, combination with propiverine: 10^−6 M propiverine plus compound (a, b, f, g 10^−9 M; c, d 10^−10 M; e, h, i 10^−8 M); for relaxation of bladder compression muscle, combination with propiverine / relaxation of bladder compression muscle, combination with oxybutynin / relaxation of bladder compression muscle, combination with tolterodine: in comparison with each compound alone; for relaxation of bladder compression muscle, combination with oxybutynin: 10^−9 M oxybutynin plus compound (a, b, f, g 10^−9 M; c 10^−10 M; e, h, i 10^−8 M); for relaxation of bladder compression muscle, combination with tolterodine: 10^−9 M tolterodine plus compound (a, b, f, g 10^−9 M; d 10^−10 M; e, h, i 10^−8 M); for concentration at which the bladder compression muscle was significantly relaxed / concentration at which the muscle was not relaxed significantly: contraction provoked by carbachol (0.5×10^−6 M), each compound alone.

For assay [4], the system named is Mice. In words: Antidiabetic effect: plasma glucose in mice, insulin and β3 agonist. In kind it is in vivo. To be noted: 30 min after dosing; INS 0.2 U/kg intraperitoneal; oral compound a 10 mg/kg; c, d 0.3 mg/kg; e, g 3 mg/kg; h, i 1 mg/kg; alone or combined. As to the method:
Mice were administered with insulin (INS: 0.2 U/kg, intraperitoneal injection), a β3 agonist (oral administration of compound a: 10 mg/kg; compound c: 0.3 mg/kg; compound d: 0.3 mg/kg; compound e: 3 mg/kg; compound g: 3 mg/kg; compound h: 1 mg/kg; compound i: 1 mg/kg, respectively), or INS and a β3 agonist (compound a, compound c, compound d, compound e, compound g, compound h, and compound i) in combination (each dosage and administration route was the same as the aforementioned), blood was collected after 30 min, and the amount of glucose contained in blood plasma was measured.

Assay [5] concerns Mice induced with obesity by feeding with a high fat diet. In words: Antiobestic effect (II): body weight of high fat diet obese mice, orlistat and β3 agonist. The class given is in vivo. To be noted: oral, 2 weeks; orlistat 1 mg/kg; compound c, d 0.3 mg/kg; e, g 3 mg/kg; h, i 1 mg/kg; alone or combined at same doses. As to the method: Mice induced with obesity by feeding with a high fat diet for 2 months were orally administered with orlistat (1 mg/kg), a β3 agonist (compound c: 0.3 mg/kg; compound d: 0.3 mg/kg; compound e: 3 mg/kg; compound g: 3 mg/kg; compound h: 1 mg/kg; compound i: 1 mg/kg), or orlistat and a β3 agonist (compound c, compound d, compound e, compound g, compound h, and compound i) in combination (each dosage was the same as the aforementioned) for 2 weeks and bred, and body weight was measured.

For assay [6], the system named is Genetically diabetic mice. Put plainly: Antidiabetic effect (IV): genetically diabetic mice, acarbose and β3 agonist. The class given is in vivo. The settings on record: oral, 2 weeks; ACA 1 mg/kg; compound c, d 0.3 mg/kg; e, g 3 mg/kg; h, i 1 mg/kg; alone or combined.
Method: Genetically diabetic mice were orally administered with acarbose (ACA: 1 mg/kg), a β3 agonist (compound c: 0.3 mg/kg; compound d: 0.3 mg/kg; compound e: 3 mg/kg; compound g: 3 mg/kg; compound h: 1 mg/kg; compound i: 1 mg/kg), or ACA and a β3 agonist (compound c, compound d, compound e, compound g, compound h, and compound i) in combination (each dosage was the same as the aforementioned) for 2 weeks. Blood was collected thereafter, and the amount of glucose contained in blood plasma was measured.
The test system of assay [7] is Mice. In words: Antilipemic effect (II): plasma triglyceride in mice, bezafibrate and β3 agonist. In kind it is in vivo. The settings on record: oral, 2 weeks; administered solely: BEZ 3 mg/kg; compound c, d 0.3 mg/kg; e, g 3 mg/kg; h, i 1 mg/kg.
Method: Mice were orally administered with bezafibrate (BEZ: 3 mg/kg), a β3 agonist (compound c: 0.3 mg/kg; compound d: 0.3 mg/kg; compound e: 3 mg/kg; compound g: 3 mg/kg; compound h: 1 mg/kg; compound i: 1 mg/kg), or BEZ and a β3 agonist (compound c, compound d, compound e, compound g, compound h, and compound i) in combination (each dosage was the same as the aforementioned) for 2 weeks. Blood was collected thereafter, and the amount of triglyceride contained in blood plasma was measured.
Assay [8] relates to Genetically diabetic mice. In words: Antidiabetic effect (III): genetically diabetic mice, rosiglitazone and β3 agonist. In kind it is in vivo. The settings on record: oral, 2 weeks; ROS 1 mg/kg; compound c, d 0.3 mg/kg; e, g 3 mg/kg; h, i 1 mg/kg; alone or combined. As to the method:
Genetically diabetic mice were orally administered with rosiglitazone (ROS: 1 mg/kg), a β3 agonist (compound c: 0.3 mg/kg; compound d: 0.3 mg/kg; compound e: 3 mg/kg; compound g: 3 mg/kg; compound h: 1 mg/kg; compound i: 1 mg/kg), or ROS and a β3 agonist (compound c, compound d, compound e, compound g, compound h, and compound i) in combination (each dosage was the same as the aforementioned) for 2 weeks. Blood was collected thereafter, and the amount of glucose contained in blood plasma was measured.

In the case of `COc1ccc(Cl)cc1C(=O)NCCc1ccc(S(=O)(=O)NC(=O)NC2CCCCC2)cc1` [GLI, glibenclamide, reference compound], the “blood glucose level (glucose in blood plasma)” value (shortened to “blood glucose level”) in assay [1] is recorded as “almost no difference in the blood glucose level”.

Take `CC(C)CC(N(C)C)C1(c2ccc(Cl)cc2)CCC1` (stereo not drawn) [SIB, sibutramine, reference compound]: in assay [2], the body weight result is given as “almost no change in body weight”.

Take `CS(=O)(=O)Nc1cccc([C@@H](O)CNCCOc2ccc3c(c2)[nH]c2cc(O)ccc23)c1` [compound a, (R)-N-[3-[2-[2-(7-hydroxy-9H-carbazole-2-iloxy)ethylamino]-1-hydroxyethyl]phenyl]methanesulfonamide]: the “blood glucose level” value in assay [1] is on record as “almost no difference in the blood glucose level”. Moreover, in assay [3], the “relaxation of bladder compression muscle, combination with propiverine” value (shortened to “relaxation … with propiverine”) is reported as “relaxed significantly”; the “relaxation of bladder compression muscle, combination with oxybutynin” value (shortened to “relaxation … with oxybutynin”) is listed as “relaxed significantly”; the “relaxation of bladder compression muscle, combination with tolterodine” value (from here on “relaxation … with tolterodine”) was “relaxed significantly”; the “concentration at which the bladder compression muscle was significantly relaxed” value was 10^−7 M. Besides, the “concentration at which the muscle was not relaxed significantly” value in assay [3] is given as 10^−9 M. Moreover, in the assay with Mice [4], the “blood glucose level” value is listed as “no change in blood glucose level”.

Turning to `CS(=O)(=O)Nc1cc([C@@H](O)CNCCOc2ccc3c4c([nH]c3c2)CCCC4)ccc1O` [compound b, (R)-N-[5-[2-[2-(5,6,7,8-tetrahydro-9H-carbazole-2-iloxy)ethylamino]-1-hydroxyethyl]-2-hydroxyphenyl]methanesulfonamide], in assay [3], the “relaxation … with propiverine” value is “relaxed significantly”; the “relaxation … with oxybutynin” value is recorded as “relaxed significantly”; the “relaxation … with tolterodine” value is “relaxed significantly”; the “concentration at which the bladder compression muscle was significantly relaxed” value is reported as 10^−7 M. Also, the “concentration at which the muscle was not relaxed significantly” value in assay [3] was 10^−9 M.

`CS(=O)(=O)Nc1cc([C@@H](O)CNCCOc2ccc3c(c2)sc2ccccc23)ccc1O` [compound c, (R)-N-[5-[2-[2-(dibenzothiophene-3-iloxy)ethylamino]-1-hydroxyethyl]-2-hydroxyphenyl]methanesulfonamide]: the “blood glucose level” value in assay [1] is “almost no difference in the blood glucose level”. Besides, the body weight entry in assay [5] is “almost no change in body weight”. Moreover, in assay [3], the “relaxation … with propiverine” value was “relaxed significantly”; the “relaxation … with oxybutynin” value is recorded as “relaxed significantly”; the “relaxation … with tolterodine” value is “relaxed significantly”; the “concentration at which the bladder compression muscle was significantly relaxed” value was 10^−8 M. For the same compound, the “concentration at which the muscle was not relaxed significantly” value in assay [3] was 10^−10 M. The “blood glucose level” value in assay [6] was “no difference”. Further, the “blood glucose level” value with Mice [4] was “no change in blood glucose level”. Also, the plasma triglyceride level entry in the assay on Mice [7] is reported as “no difference”. The “blood glucose level” value in assay [8] is listed as “no difference in the blood glucose level”. In addition, in assay [2], the body weight result is “almost no change in body weight”.

As to `CS(=O)(=O)Nc1cc([C@@H](O)CNCCOc2ccc3c(c2)[nH]c2ccccc23)ccc1O` [compound d, (R)-N-[5-[2-[2-(9H-carbazole-2-iloxy)ethylamino]-1-hydroxyethyl]-2-hydroxyphenyl]methanesulfonamide], the “blood glucose level” value in assay [1] is “almost no difference in the blood glucose level”. For the same compound, the body weight result in assay [5] is reported as “almost no change in body weight”. In assay [3], the “relaxation … with propiverine” value is “relaxed significantly”; the “relaxation … with oxybutynin” value is on record as “relaxed significantly”; the “relaxation … with tolterodine” value was “relaxed significantly”; the “concentration at which the bladder compression muscle was significantly relaxed” value is reported as 10^−8 M. In assay [3], the “concentration at which the muscle was not relaxed significantly” value was 10^−10 M. In addition, the “blood glucose level” value in assay [6] was “no difference”. Also, the “blood glucose level” value in the assay on Mice [4] is listed as “no change in blood glucose level”. Also, in the assay with Mice [7], the plasma triglyceride level entry is “no difference”. The “blood glucose level” value in assay [8] was “no difference in the blood glucose level”. For the same compound, the body weight entry in assay [2] is “almost no change in body weight”.

As for `CS(=O)(=O)Nc1cccc([C@@H](O)CNCCOc2ccc3c(c2)[nH]c2ccccc23)c1` [compound e, (R)-N-[3-[2-[2-(9H-carbazole-2-iloxy)ethylamino]-1-hydroxyethyl]phenyl]methanesulfonamide], the “blood glucose level” value in assay [1] was “almost no difference in the blood glucose level”; in assay [6], “no difference”; in the assay on Mice [4], “no change in blood glucose level”; in assay [8] it was “no difference in the blood glucose level”. Moreover, the body weight entry in assay [5] and in assay [2] was “almost no change in body weight” each time. The “relaxation … with propiverine” value in assay [3] is recorded as “relaxed significantly”. In assay [3], the “relaxation … with oxybutynin” value is listed as “relaxed significantly”. In assay [3], the “relaxation … with tolterodine” value is listed as “relaxed significantly”. Besides, in assay [3], the “concentration at which the bladder compression muscle was significantly relaxed” value is reported as 10^−6 M. Also, the “concentration at which the muscle was not relaxed significantly” value in assay [3] is given as 10^−8 M. The plasma triglyceride level result in the assay with Mice [7] is given as “no difference”.

With `CN(C)S(=O)(=O)Nc1cc([C@@H](O)CNCCOc2ccc3c(c2)[nH]c2ccccc23)ccc1O` [compound f, (R)-N′-[5-[2-[2-(9H-carbazole-2-iloxy)ethylamino]-1-hydroxyethyl]-2-hydroxyphenyl]-N,N-dimethyl sulfonyl amide], in assay [3], the “relaxation … with propiverine” value was “relaxed significantly”; the “relaxation … with oxybutynin” value is on record as “relaxed significantly”; the “relaxation … with tolterodine” value is “relaxed significantly”; the “concentration at which the bladder compression muscle was significantly relaxed” value is on record as 10^−7 M. Further, the “concentration at which the muscle was not relaxed significantly” value in assay [3] is 10^−9 M.

For the compound `CCCCCCCCCCC[C@@H](C[C@@H]1OC(=O)[C@H]1CCCCCC)OC(=O)[C@H](CC(C)C)NC=O` [orlistat, reference compound], the body weight result in assay [5] is listed as “almost no change in body weight”.

Take insulin [reference compound]: the “blood glucose level” value in the assay with Mice [4] is “no change in blood glucose level”.
